In the NIST ThermoML archive (doi:10.1021/je7002786):

Key:
[1] = DTA
[2] = molar heat capacity at constant pressure; details: 101.33 kPa, Liquid

CCOS(=O)(=O)[O-].CCn1cc[n+](C)c1 [1-ethyl-3-methylimidazolium ethyl sulfate]
Details | Glass transition temperature [°C]
[1] | -78.40

[2], Small sample (50 mg) DSC
Details | molar heat capacity at constant pressure [J/K/mol]
283.1 K | 387.04
293.15 K | 409.73
303.15 K | 432.41
313.15 K | 455.09
323.15 K | 477.78
333.15 K | 500.46
343.15 K | 523.15
353.15 K | 545.83
363.15 K | 568.51
373.1 K | 591.2

CCCCn1cc[n+](C)c1.COS(=O)(=O)[O-] [1-butyl-3-methylimidazolium methyl sulfate]
Details | Normal melting temperature [°C] | molar heat capacity at constant pressure [J/K/mol]
[1], Crystal | -4.10 | –
[2], 283.1 K | – | 226.29
[2], 293.15 K | – | 246.56
[2], 303.15 K | – | 266.84
[2], 313.15 K | – | 287.11
[2], 323.15 K | – | 307.39
[2], 333.15 K | – | 327.66
[2], 343.15 K | – | 347.94
[2], 353.15 K | – | 368.22
[2], 363.15 K | – | 388.49
[2], 373.1 K | – | 408.77

Details | Glass transition temperature [°C]
[1] | -91.90
